# pIC50: −log10 of the molar value. Counter-ions that a name gives are not always drawn.
# Biological target: KHK (Homo sapiens (Human), UniProt P50053)
# Test: In Vitro KHK Enzyme Assay (HTMS);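 also: primary screen measuring inhibition of KHK-catalysed conversion of D-fructose into fructose 1-phosphate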
# Assay type: biochemical
# Conditions: 200 μM fructose, 100 μM ATP, 2 nM KHK, 60 min at 25° C.; Fructose-1-P detected by high throughput mass spectrometry
# Method: An enzymatic assay was developed to measure KHK-mediated conversion of D-fructose to Fructose-1-P (F-1-P) using High Throughput Mass Spectroscopy (HTMS) as a means of product detection. This assay served as a primary screen to evaluate the ability to inhibit KHK enzyme activity and it has been adapted to high throughput mass spectrometry (HTMS, BioTrove RapidFire™) format for higher throughput.
# The compounds to be tested were dosed in 12-points concentration from 511 μM to 0.5 μM. […] The assay was carried out in 384-well plate format.
# Sequence of KHK (P50053 whole entry): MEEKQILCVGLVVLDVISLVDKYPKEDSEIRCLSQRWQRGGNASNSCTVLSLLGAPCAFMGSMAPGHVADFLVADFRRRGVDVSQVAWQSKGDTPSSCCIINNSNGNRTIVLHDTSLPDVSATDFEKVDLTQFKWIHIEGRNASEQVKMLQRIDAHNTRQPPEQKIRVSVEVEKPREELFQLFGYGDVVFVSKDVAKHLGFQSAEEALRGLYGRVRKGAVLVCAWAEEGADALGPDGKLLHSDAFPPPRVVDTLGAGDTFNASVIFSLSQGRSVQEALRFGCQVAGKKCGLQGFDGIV
row,pIC50,Structure (SMILES)
1,5.35,"COc1nn(-c2ccccc2)c2cc(NC(=O)c3ccc4[nH]cnc4c3)ccc12 [Compound 80, N-(3-methoxy-1-phenyl-1H-indazol-6-yl)-1H-benzo[d]imidazole-5-carboxamide]"
2,4.52,"COc1nn(-c2ccccc2)c2cc(N3CCN(C4CCNCC4)C3=O)ccc12 [Compound 81, 1-(3-Methoxy-1-phenyl-1H-indazol-6-yl)-3-(piperidin-4-yl)imidazolidin-2-one hydrochloride]"
3,4.64,"CCc1nn(-c2ccccc2)c2nc(N3CCN(C4CNC4)CC3)ncc12 [Compound 82, 6-(4-Azetidin-3-yl-piperazin-1-yl)-3-ethyl-1-phenyl-1H-pyrazolo[3,4-d]pyrimidine]"
4,< 4.52,"Cc1nn(-c2ccccc2)c2nc(C3CCN(c4cccnc4)CC3)nc(O)c12 [Compound 84, 3-Methyl-1-phenyl-6-(3,4,5,6-tetrahydro-2H-[1,3′]bipyridinyl-4-yl)-1H-pyrazolo[3,4-d]pyrimidin-4-ol]"
5,5.13,"Cc1nn(-c2ccccc2)c2nc(C3CCCN(C4CNC4)C3)nc(O)c12 (centres unmarked) [Compound 85, 6-(1-Azetidin-3-yl-piperidin-3-yl)-3-methyl-1-phenyl-1H-pyrazolo[3,4-d]pyrimidin-4-ol]"
6,5.21,"Cc1nn(-c2ccccc2)c2nc(C3CCNCC3)nc(O)c12 [Compound 86, 3-Methyl-1-phenyl-6-piperidin-4-yl-1H-pyrazolo[3,4-d]pyrimidin-4-ol hydrochloride]"
7,< 4.52,"Cc1nn(-c2ccccc2)c2nc(C3CCN(C(=O)C4CCNCC4)CC3)nc(O)c12 [Compound 87, [4-(4-Hydroxy-3-methyl-1-phenyl-1H-pyrazolo[3,4-d]pyrimidin-6-yl)-piperidin-1-yl]-piperidin-4-yl-methanone hydrochloride]"
8,5.82,"Cc1nn(-c2ccccc2)c2nc(C3CCN(C4CCNC4)CC3)nc(O)c12 (centres unmarked) [Compound 88, 3-Methyl-1-phenyl-6-(1-pyrrolidin-3-yl-piperidin-4-yl)-1H-pyrazolo[3,4-d]pyrimidin-4-ol hydrochloride]"
9,4.85,"Cc1nn(-c2ccccc2)c2nc(C3CCN(C4CCNCC4)CC3)nc(O)c12 [Compound 89, 6-[1,4′]Bipiperidinyl-4-yl-3-methyl-1-phenyl-1H-pyrazolo[3,4-d]pyrimidin-4-ol hydrochloride]"
10,< 4.52,"Cc1nn(-c2ccccc2)c2nc(CC3CCN(C4CNC4)CC3)nc(O)c12 [Compound 90, 6-(1-Azetidin-3-yl-piperidin-4-ylmethyl)-3-methyl-1-phenyl-1H-pyrazolo[3,4-d]pyrimidin-4-ol]"
11,5.62,"CCc1nn(-c2ccccc2)c2nc(C3CCNCC3)nc(O)c12 [Compound 91, 3-Ethyl-1-phenyl-6-piperidin-4-yl-1H-pyrazolo[3,4-d]pyrimidin-4-ol hydrochloride]"
12,5.78,"CCc1nn(-c2ccccc2)c2nc(C3CCN(c4ccncc4)CC3)nc(O)c12 [Compound 92, 3-Ethyl-1-phenyl-6-(3,4,5,6-tetrahydro-2H-[1,4′]bipyridinyl-4-yl)-1H-pyrazolo[3,4-d]pyrimidin-4-ol]"
13,5.10,"CCc1nn(-c2ccccc2)c2nc(C3CCN(c4cccnc4)CC3)nc(O)c12 [Compound 93, 3-Ethyl-1-phenyl-6-(3,4,5,6-tetrahydro-2H-[1,3′]bipyridinyl-4-yl)-1H-pyrazolo[3,4-d]pyrimidin-4-ol]"
14,5.28,"CCc1nn(-c2ccccc2)c2nc(C3CCN(C4CCNC4)CC3)nc(O)c12 (centres unmarked) [Compound 94, 3-Ethyl-1-phenyl-6-(1-pyrrolidin-3-yl-piperidin-4-yl)-1H-pyrazolo[3,4-d]pyrimidin-4-ol hydrochloride]"
15,4.94,"CCc1nn(-c2ccccc2)c2nc(C3CCN(C4CCNCC4)CC3)nc(O)c12 [Compound 95, 6-[1,4′]Bipiperidinyl-4-yl-3-ethyl-1-phenyl-1H-pyrazolo[3,4-d]pyrimidin-4-ol hydrochloride]"
16,4.52,"CCc1nn(-c2ccccc2)c2nc(C3CCN(C(=O)C4CCNCC4)CC3)nc(O)c12 [Compound 96, [4-(3-Ethyl-4-hydroxy-1-phenyl-1H-pyrazolo[3,4-d]pyrimidin-6-yl)-piperidin-1-yl]-piperidin-4-yl-methanone hydrochloride]"
17,5.57,"Cc1nn(-c2ccccc2)c2nc(-c3ccc(N4CCNCC4)cc3)cc(O)c12 [Compound 97, 3-Methyl-1-phenyl-6-(4-piperazin-1-yl-phenyl)-1H-pyrazolo[3,4-b]pyridin-4-ol]"
18,6.52,"CCc1nn(-c2ccccc2)c2nc(-c3ccc(N4CC(C)NC(C)C4)cc3)cc(OC)c12 (centres unmarked) [Compound 98, 6-[4-(3,5-Dimethyl-piperazin-1-yl)-phenyl]-3-ethyl-4-methoxy-1-phenyl-1H-pyrazolo[3,4-b]pyridine]"
19,6.22,"COc1cc(-c2ccc(N3CCNCC3)cc2)nc2c1c(C)nn2-c1ccccc1 [Compound 99, 4-Methoxy-3-methyl-1-phenyl-6-(4-piperazin-1-yl-phenyl)-1H-pyrazolo[3,4-b]pyridine]"
20,5.76,"CCc1nn(-c2ccccc2)c2nc(-c3ccc(NC4CCNCC4)cc3)cc(O)c12 [Compound 100, 3-Ethyl-1-phenyl-6-[4-(piperidin-4-ylamino)-phenyl]-1H-pyrazolo[3,4-b]pyridin-4-ol]"
21,6.05,"Cc1nn(-c2ccccc2)c2nc(-c3ccc(NC4CCNCC4)cc3)cc(O)c12 [Compound 101, 3-Methyl-1-phenyl-6-[4-(piperidin-4-ylamino)-phenyl]-1H-pyrazolo[3,4-b]pyridin-4-ol]"
22,5.84,"CCOc1cc(-c2ccc(N3CCNCC3)cc2)nc2c1c(CC)nn2-c1ccccc1 [Compound 102, 4-Ethoxy-3-ethyl-1-phenyl-6-(4-piperazin-1-yl-phenyl)-1H-pyrazolo[3,4-b]pyridine]"
23,6.18,"CCOc1cc(-c2ccc(N3CCN(C)CC3)cc2)nc2c1c(CC)nn2-c1ccccc1 [Compound 103, 4-Ethoxy-3-ethyl-6-[4-(4-methyl-piperazin-1-yl)-phenyl]-1-phenyl-1H-pyrazolo[3,4-b]pyridine]"
24,4.83,"CCOc1cc(-c2ccc(N3CC(C)NC(C)C3)cc2)nc2c1c(CC)nn2-c1ccccc1 (centres unmarked) [Compound 104, 6-[4-(3,5-Dimethyl-piperazin-1-yl)-phenyl]-4-ethoxy-3-ethyl-1-phenyl-1H-pyrazolo[3,4-b]pyridine]"
25,6.44,"COc1ccc(-n2nc(SC)c3ccc(N4CCN(C5CCNCC5)CC4)cc32)cc1 [Compound 106, 1-(4-Methoxy-phenyl)-3-methylsulfanyl-6-(4-piperidin-4-yl-piperazin-1-yl)-1H-indazole]"
26,6.36,"CSc1nn(-c2ccccc2)c2cc(OCC3CCNCC3)ccc12 [Compound 107, 3-Methylsulfanyl-1-phenyl-6-(piperidin-4-ylmethoxy)-1H-indazole]"
27,6.05,"CCN(CC1CCNCC1)c1ccc2c(SC)nn(-c3ccccc3)c2c1 [Compound 108, Ethyl-(3-methylsulfanyl-1-phenyl-1H-indazol-6-yl)-piperidin-4-ylmethyl-amine]"
28,6.11,"CSc1nn(-c2ccccc2)c2cc(NC3CCNCC3)ccc12 [Compound 109, (3-Methylsulfanyl-1-phenyl-1H-indazol-6-yl)-piperidin-4-yl-amine]"

row,Structure (SMILES),pIC50
1,"CCc1nn(-c2ccccc2)c2nc(N3CCN(c4cccnc4)CC3)ncc12 [Compound 83, 3-Ethyl-1-phenyl-6-(4-(pyridin-3-yl)piperazin-1-yl)-1H-pyrazolo[3,4-d]pyrimidine trifluoroacetic acid]",< 4.52

# From patent publication US8822447B2, “Indazole compounds useful as ketohexokinase inhibitors” (Janssen Pharmaceutica NV, priority 2010, dated 2014)
